Experiments:
[1] = test system: human plasma proteins; assay: Plasma protein binding assay (equilibrium dialysis); format: in vitro ADME; conditions: 2 μM, dialysis 4 hours at 37° C.
Experimental: (§1) The dialysis device used in this example is a 96-well equilibrium dialysis plate (Cat #1006, HT Dialysis LLC, Gales Gerry, CT), and HTD 96 a/b dialysis membrane strips (Cat #1101, MWCO 12-14 kDa, HT Dialysis LLC). The dialysis device was assembled following the manufacturer's instructions.
(§2) The dialysis membrane strips were soaked in ultra-pure water at room temperature for approximately 1 hour. Each membrane strip containing 2 membranes was separated and soaked in 20:80 ethanol/water (v/v) for approximately 20 minutes, after which they were ready for used or were stored in the solution at 2-8° C. for up to a month. Prior to experiment, the membrane was rinsed and soaked for 20 minutes in ultra-pure water.
(§3) On the day of the experiment, the plasma was thawed by running under col tap water and centrifuged at 3220 rpm for 5 minutes to remove any clos. The pH value of the resulting plasma was checked. Only plasma with pH value with 7.0-8.0 could be used.
(§4) Both test and control compounds were dissolved in DMSO to achieve 10 mM stock solutions. Working solutions (400 μM) if test and control compounds were prepared by diluting 10μ of stock solutions with 240 μL of DMSO. Loading matrix solutions (2 μM) of both test and control compounds were prepared by diluting 5 μL of working solutions with 995 μL of blank matrix.
(§5) To prepare the loading matrix containing the test compound or control compounds, aliquots of either test compound working solutions or control compound working solution were spiked into blank matrix to achieve final test concentrations. The concentration of organic solvent in the final solutions were no more than 1% (normally 0.5%). The samples were mixture thoroughly before being used.
(§6) To prepare the time zero (T0) samples to be used for recovery determinations. 50 μL aliquots of loading matrix solution were transferred in triplicate to the sample collection plate. The samples were immediately matched with opposite blank buffer to obtain a final volume of 100 μL of 1:1 matrix/dialysis buffer (v/v) in each well. 500 μL of stop solution were added to these T0 samples. They were then stored at 2-8° C. pending further processes along with other post-dialysis samples.
(§7) To load the dialysis device, an aliquot of 150 μL of the loading matrix was transferred to the donor side of each dialysis well in triplicate, and 150 μL of the dialysis buffer was loaded to the received side of the well. The dialysis was placed in humidified incubator at 37° C. with 5% CO2 on a shaking platform that rated slowly (about 100 rpm) for 4 hours.
(§8) At the end of the dialysis, aliquots of 50 μL of samples were taken from both the buffer side and the matrix side of the dialysis deice. These samples were transferred into new 96-well plates (the sample collection plates). Each sample was mixed with an equal volume of opposite blank matrix (buffer or matrix) to reach a final volume of 100 μL of 1:1 matrix/dialysis buffer (v/v) in each well. All samples were further processed by adding 500 μL of stop solution containing internal standards. The mixture was vortexed and centrifuged at 4000 rpm for about 20 minutes. An aliquot of 100 μL of supernatant of all the samples were then removed for LC-MS/MS analysis.
(§9) The single blank samples were prepared by transferring 50 μL of blank matrix to a 96 well plate and adding 50 μL of blank PBS buffer to each well. The blank plasma must match the species of plasma used in the plasma side of the well. Then the matrix-matched samples were further processed by adding 500 μL of stop solution containing internal standards, following the same sample processing method as the dialysis samples.

[2] = as above; format: in vitro ADME; conditions: human plasma, dialysis 4 hours at 37° C.
Experimental: as §1, §2, §3, §4, §5, §6, §7, §8, §9

[3] = target: human PDE-5A1 (Homo sapiens, UniProt O76074); assay: Human PDE-5A1 inhibition assay (fluorescence polarization, FAM-cGMP); format: biochemical; conditions: read-out: IC50 (μM) PDE5A1
[4] = target: human PDE-6C (Homo sapiens, UniProt P51160); assay: Human PDE-6C inhibition assay (fluorescence polarization, FAM-cGMP); format: biochemical; conditions: read-out: IC50 (μM) PDE6C
human PDE-6C, sequence (P51160 whole entry): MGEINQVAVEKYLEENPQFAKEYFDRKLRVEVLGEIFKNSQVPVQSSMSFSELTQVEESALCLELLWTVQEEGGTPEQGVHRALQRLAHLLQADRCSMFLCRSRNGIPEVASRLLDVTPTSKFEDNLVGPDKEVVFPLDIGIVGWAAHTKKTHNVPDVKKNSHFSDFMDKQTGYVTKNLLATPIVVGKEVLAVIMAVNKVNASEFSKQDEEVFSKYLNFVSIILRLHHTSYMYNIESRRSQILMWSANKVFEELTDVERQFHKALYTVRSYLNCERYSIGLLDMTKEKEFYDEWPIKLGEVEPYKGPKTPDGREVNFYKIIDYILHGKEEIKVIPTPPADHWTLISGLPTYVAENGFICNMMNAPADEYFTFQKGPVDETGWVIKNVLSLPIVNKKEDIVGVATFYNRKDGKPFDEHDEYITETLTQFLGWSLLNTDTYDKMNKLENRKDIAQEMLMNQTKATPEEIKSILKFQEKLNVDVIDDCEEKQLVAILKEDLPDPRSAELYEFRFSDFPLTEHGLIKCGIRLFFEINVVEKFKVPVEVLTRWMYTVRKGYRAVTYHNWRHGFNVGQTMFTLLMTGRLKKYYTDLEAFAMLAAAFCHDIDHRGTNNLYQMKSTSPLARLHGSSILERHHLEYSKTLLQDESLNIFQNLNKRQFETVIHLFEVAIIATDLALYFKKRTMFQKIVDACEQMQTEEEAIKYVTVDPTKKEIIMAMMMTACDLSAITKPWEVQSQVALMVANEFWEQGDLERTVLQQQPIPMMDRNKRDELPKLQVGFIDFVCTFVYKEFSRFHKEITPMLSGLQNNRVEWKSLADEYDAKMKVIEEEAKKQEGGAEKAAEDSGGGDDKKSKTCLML

CCCc1nn(C)c2c(=O)[nH]c(-c3cc(S(=O)(=O)N4CC(CCCO[N+](=O)[O-])C4)ccc3OCC)nc12 [Compound 18, 3-(1-((4-ethoxy-3-(1-methyl-7-oxo-3-propyl-6,7-dihydro-1H-pyrazolo[4,3-d]pyrimidin-5-yl)phenyl)sulfonyl)azetidin-3-yl)propyl nitrate]
% Bound [1]: 99.52%
fraction unbound at 4 h, 2 µM [2]: 0.0048

CCCc1nn(C)c2c(=O)[nH]c(-c3cc(S(=O)(=O)N4CC(CCCO)C4)ccc3OCC)nc12 [Compound 4, 5-(2-ethoxy-5-((3-(3-hydroxypropyl)azetidin-1-yl)sulfonyl)phenyl)-1-methyl-3-propyl-1,6-dihydro-7H-pyrazolo[4,3-d]pyrimidin-7-one]
IC50 [3]: < 0.01 µM
IC50 [4]: < 0.01 µM
% Bound [1]: 96.01%
fraction unbound at 4 h, 2 µM [2]: 0.0399

Source: patent publication US20220153746A1, “NITROGEN OXIDE-DONATING PDE-5 AND/OR PDE-6 INHIBITOR COMPOUNDS, AND USES THEREOF” (ILDONG PHARMACEUTICAL CO., LTD., priority 2020, published 2022)
